This note sets out measurements from PubChem BioAssay (NCI).

Assay in all cases: inhibition of tumour cell growth, NCI panel, 48 h
The test system of experiment [1] is CCRF-CEM leukemia.
Experiment [2] relates to COLO 205 colon.
Experiment [3] deals with EKVX NSCLC.
The test system of experiment [4] is HOP-62 NSCLC.
Experiment [5] has as its system HOP-92 NSCLC.
For experiment [6], the system named is HS 578T breast.
Experiment [7] concerns KM12 colon.
Experiment [8] relates to MALME-3M melanoma.
The subject of experiment [9] is NCI/ADR-RES ovarian.
The test system of experiment [10] is OVCAR-5 ovarian.
Experiment [11] has as its system SF-539 CNS.
Experiment [12] deals with SK-MEL-28 melanoma.
Experiment [13] has as its system SK-OV-3 ovarian.
In experiment [14] the test system is SN12C renal.
Experiment [15] concerns UACC-257 melanoma.
Experiment [16] concerns UACC-62 melanoma.
Experiment [17] has as its system HL-60(TB) leukemia.

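A five-concentration, 48-hour dose response in 96-well plates underlies each endpoint, interpolated linearly between surrounding concentrations. TGI: concentration producing complete growth inhibition.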

Take `O=C(OCC1CCCN2CCCCC12)c1ccncc1` (centres undefined): the TGI in experiment [1], in experiment [2], in experiment [3], in experiment [4], in [5] and in experiment [6] was above 100 µM throughout. Also, the TGI in experiment [7], in experiment [8], in experiment [9], in experiment [10], in experiment [11] and in experiment [12] was above 100 µM each time. Also, the TGI in experiment [13], in [14], in [15] and in experiment [16] was above 100 µM in each case.

As to `CSc1ccc(/C=C2\N=C(c3ccccc3)N(c3nc4c(Cl)cc(Cl)cc4s3)C2=O)cc1`, the TGI is 43.3 µM in experiment [1]; above 100 µM in experiment [2]; 49.9 µM in experiment [3]; 69.7 µM in experiment [17]; 39.7 µM in [4]; above 100 µM in [5]. In addition, the TGI is 64.6 µM in experiment [6]; 88.6 µM in experiment [7]; 68.2 µM in experiment [9]; above 100 µM in experiment [10]; above 100 µM in experiment [11]; above 100 µM in experiment [12]. Further, the TGI in [13] was 84.9 µM; in [14], 56.3 µM; in experiment [15], above 100 µM; in [16], 73.1 µM.

For `CCCC#CC(O)(C(=O)OC1CCN(C)CC1)C1CCCCC1` (centres undefined), the TGI in experiment [1], in experiment [2], in experiment [3], in [4], in experiment [5] and in [6] was above 100 µM throughout. Further, the TGI in experiment [7], in experiment [8], in experiment [9], in experiment [10], in [11] and in experiment [12] was above 100 µM in each case. For the same molecule, the TGI in experiment [13], in experiment [14], in [15] and in experiment [16] was above 100 µM in each case.

On to `O=c1c(-c2ccccc2Cl)coc2cc(F)ccc12`, for which the TGI is above 100 µM in experiment [1]; above 100 µM in experiment [2]; above 100 µM in experiment [3]; 31.2 µM in experiment [17]; 62.2 µM in [4]; 87.1 µM in experiment [5]. In addition, the TGI in [6] was above 100 µM; in experiment [7], 71.8 µM; in experiment [9] it was 46.7 µM; in [10], above 100 µM; in experiment [11], 31.6 µM; in [12], above 100 µM. Moreover, the TGI in [13] was above 100 µM; in experiment [14], above 100 µM; in [15], above 100 µM; in [16], 73.6 µM.

Turning to `Nn1c(SCC(=O)NCc2ccccc2)nc2ccccc2c1=O`, the TGI in experiment [1], in [2], in [3], in experiment [5], in experiment [6] and in experiment [7] was above 100 µM throughout. For the same molecule, the TGI in [8], in [9], in experiment [10], in experiment [11], in experiment [12] and in [14] was above 100 µM in each case. The TGI in [15] and in experiment [16] was above 100 µM each time.

On to `O=c1c(O)c(-c2cc(O)c(O)cc2O)oc2cc(O)c(C3OC(CO)C(O)C(O)C3O)c(O)c12` (centres undefined), for which the TGI in experiment [3], in experiment [17], in experiment [4], in experiment [5], in experiment [6] and in experiment [7] was above 100 µM throughout. Moreover, the TGI in experiment [9], in experiment [10], in experiment [11], in [12], in experiment [13] and in experiment [14] was above 100 µM throughout. Further, the TGI in experiment [15] and in [16] was above 100 µM in each case.

For `O=S(=O)(O)c1ccc2c(N=Nc3ccccc3Cl)c(O)ccc2c1`, the TGI in experiment [1], in experiment [2], in experiment [3], in [4], in experiment [5] and in [6] was above 100 µM throughout. Also, the TGI in experiment [7], in [8], in experiment [9], in experiment [10], in experiment [12] and in experiment [13] was above 100 µM throughout. Moreover, the TGI in experiment [14], in [15] and in experiment [16] was above 100 µM each time.

Turning to `COc1ccc(C2SCC(=O)N2NC(=O)C(C)Oc2ccccc2Cl)cc1` (centres undefined), the TGI in [1] is 79.6 µM; in [2], 64.4 µM; in experiment [3], above 100 µM; in experiment [17], 35.2 µM; in experiment [5], 77.4 µM; in experiment [6] it was above 100 µM. Besides, the TGI in experiment [7], in experiment [9], in experiment [10], in [11], in experiment [12] and in experiment [14] was above 100 µM throughout. The TGI in experiment [15] and in experiment [16] was above 100 µM throughout.

Regarding `CC(=N/NC(=S)N1CCCCC1)/C(C)=N\NC(=S)N1CCCCC1`, the TGI turned out to be 3.62 µM in experiment [2]; 3.11 µM in [3]; 3.51 µM in experiment [4]; 2.85 µM in experiment [5]; 5.76 µM in experiment [6]; 3.61 µM in experiment [8]. The TGI in experiment [9] came out at 5.22 µM; in experiment [10], 3.82 µM; in experiment [11], 5.58 µM; in experiment [12], 3.99 µM; in experiment [13], 3.32 µM; in [14], 3.2 µM. The molecule also yielded a TGI in [15] of 4.09 µM.
